# Measurements taken from patent US5574023A, “Intramolecularly crosslinked (1→3)-β-D-glucans” (Seikagaku Kogyo Kabushiki Kaisha (Seikagaku Corporation), priority 1991, dated 1996).
# Key:
# [1] = Single helix conformation content by high-resolution 13C-NMR of hydrated solid sample; type: physicochemical; details: for Single helix conformation % retention after one month: aqueous solution or suspension stored aseptically at 4° C. for 1 month, versus initial value; for Single helix conformation content in hydrated solid sample: immediately after synthesis, 13C-NMR
# Procedure: Each sample was deprived of water by lyophilization and then maintained in saturated water vapor, and the hydrated solid sample obtained was subjected to high-resolution ^13 C-NMR spectrometry. The single helix conformation content in the (1→3)-β-D-glucan in the sample was calculated by comparing the chemical shift peak heights for each carbon atom with the peak heights of the chemical shifts shown in Table 1 for other higher-order structure carbon atoms.
# The single helix conformation contents thus obtained from the chemical shifts of C-2, C-3 and C-5 and the respective peak heights are shown in Table 2.
# Furthermore, aqueous solutions or suspensions were stored in aseptic condition at 4° C. for 1 month and then tested for single helix conformation content in the same manner. The data obtained were compared with the initial values and the rates of retention of the respective single helix conformations contained were calculated. The uncrosslinked, single helix conformation schizophyllan, when subjected to solid-phase ^13 C-NMR spectrometry immediately after formation of said conformation, gave a single helix conformation content of 60% but, after one-month storage, the content of said structure was only 6% (10% retention). This is due to advanced transformation from the single helix conformation to other higher-order structures.
# [2] = system: Horseshoe crab lysate factor G; assay: Factor G activating ability (pNA release from Boc-Leu-Gly-Arg-pNA); type: biochemical; details: for % Retention of factor G activating ability after one month: aqueous solution or suspension stored one month at 4° C., versus initial value
# Procedure: For each sample to be tested, a reaction mixture (200 μl) containing the sample, water and the ingredients mentioned below was prepared. […]
# This reaction mixture was incubated at 37° C. for 30 minutes and, then, p-nitroaniline (pNA) liberated was quantitated. Thus, to the sample after incubation were added 0.5 ml each of 0.04% sodium nitrite (solution in 0.48M hydrochloric acid), 0.3% ammonium sulfamate and 0.07% N-1-naphthylethylenediamine dihydrichloride in that order for causing a change in color tone due to diazo coupling, and the absorbance at 545 nm (A545) was determined.
# This measurement was performed for an aqueous solution or suspension of each substance immediately after synthesis thereof. The same measurement was also performed after one month storage of the sample at 4° C., the minimum concentration (C, g/ml) at which the absorbance at 545 nm amounted to 0.1 was determined, and the factor G activating ability was expressed in terms of -log C (g/ml) value. By comparing this value with the initial value, the rate of retention of factor G activating ability was calculated.
# Sarcoma 180 cells = assay: Tumor inhibition rate, Sarcoma 180 transplanted subcutaneously in mice; type: in vivo, CLJ-ICR female mice; details: intraperitoneal, 10 times (days 1-5 and 7-11), tumor weight on day 13 versus untreated control; for % Tumor inhibition, after one month: sample administered after one month storage at 4° C.; for % Tumor inhibition, initial: sample administered immediately after preparation
# Procedure: Sarcoma 180 cells (5×10^6 cells) were transplanted subcutaneously into the groin of each of 6-week-old CLJ-ICR female mice weighing about 25 g. The intramolecularly crosslinked, single helix conformation (1→3)-β-D-glucans of the invention as obtained in Examples 1-10 and the uncrosslinked, single helix conformation schizophyllan of Comparative Example were respectively administered to the mice at 24 hours after transplantation (day 1) and thereafter once daily on days 1-5 and 7-11 (10 times in total). Thus, each sample was comminuted in a mortar, suspended or dissolved in physiological saline for injection, sterilized in an autoclave at 121° C. for 20 minutes, and then intraperitoneally administered. In a control group, no glucan was given to mice.
# On day 13, tumor nodules were excised and weighed, and their weights were compared with the tumor weight in the untreated control group for calculating tumor inhibition rates.
# In the above test, sample solutions or suspensions were administered immediately after preparation on one hand and, on the other, the solutions or suspensions were administered after one month storage at 4° C.
Substance,Single helix conformation % retention after one month [1] [%],Single helix conformation content in hydrated solid sample [1] [%],% Retention of factor G activating ability after one month [2] [%],"% Tumor inhibition, after one month (Sarcoma 180 cells) [%]","% Tumor inhibition, initial (Sarcoma 180 cells) [%]","Initial factor G activating ability, -log C (minimum concentration at which A545 amounted to 0.1) ([2]; immediately after synthesis, 37° C., 30 minutes)"
"2,3,4-Trihydroxyadipodialdehyde-crosslinked hydrazinocurdlan [Example 3]",80,70,20,92.1,100,
"2,3,4-Trihydroxyadipodihydrazide-crosslinked aldehyde schizophyllan [Example 6]",90,70,30,96.1,100,
Dodecamethylenediamine-crosslinked aldehyde schizophyllan [Example 4],100,75,100,98.4,100,
Glutardialdehyde-crosslinked hydrazinocurdlan (no receptor added) [Example 1],60,70,10,70.0,98.0,11 -log C (g/ml)
Glutardialdehyde-crosslinked hydrazinocurdlan [Example 2],70,65,20,91.1,98.2,
Glutardialdehyde-crosslinked hydrazinoschizophyllan [Example 7],80,70,25,95.0,100,
Pimelic acid-crosslinked hydrazinoschizophyllan [Example 5],60,55,10,65.6,95.3,

# Further lines, with some results ahead:
Single helix conformation % retention after one month [1] [%],Single helix conformation content in hydrated solid sample [1] [%],Substance,% Retention of factor G activating ability after one month [2] [%],"% Tumor inhibition, after one month (Sarcoma 180 cells) [%]","% Tumor inhibition, initial (Sarcoma 180 cells) [%]","Initial factor G activating ability, -log C (minimum concentration at which A545 amounted to 0.1) ([2]; immediately after synthesis, 37° C., 30 minutes)"
53,23,Glutardialdehyde-crosslinked hydrazino yeast glucan [Example 9],20,73.0,90.0,
52,35,Glutardialdehyde-crosslinked hydrazinolentinan [Example 10],20,80.0,96.0,
70,60,Hexamethylenedihydrazine-crosslinked carboxymethylated curdlan [Example 8],10,75.3,98.2,
